Source: PubChem BioAssay AID1918955 (Molecular Pharmacology Branch, DTP, NCI, 2023)
pIC50: −log10 of the molar value.

Test system: NCI/ADR-RES complex spheroid viability
Assay: Anticancer human tumor NCI/ADR-RES cell line growth inhibition;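 note: spheroids exposed to compounds for 7 days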;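 for viability, T/C: 100% = DMSO vehicle treated spheroids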
Conditions: for pIC50: curve of first compound; for viability, T/C: stronger effect = lower value
Description: Multicellular complex tumor spheroid response to LSD1 Inhibitor Iadademstat in combination with a variety of drugs and investigational agents in selected tumor cell lines
The current study was undertaken to assess response to LSD1 inhibitors in combination with standard-of-care drugs and investigational agents in solid tumor complex spheroid models as well as in the K-562 leukemia. Complex spheroids include a stromal component modeled by human endothelial cells (HUVEC) and fibroblasts modeled by human mesenchymal stem cells (MSCs). The concentration ranges selected for each drug and investigational agent were based upon clinically achievable concentrations if the clinical Cmax of the agent was known.
Compounds. The drugs and investigational agents used in this study are listed on Table 1. All of the agents used, including staurosporine (NSC755774) and gemcitabine (NSC613327), were obtained from the Developmental Therapeutics Program, NCI. FDA-approved anticancer drugs are available from the NCI at http://dtp.nci.nih.gov/branches/dscb/oncology_drugset_explanation.html. Drugs and investigational agents were >95% pure by proton nuclear magnetic resonance (NMR) and liquid chromatography/mass spectrometry (LC/MS). Stock solutions were prepared at 400x in DMSO, stored at -70 degrees C, and diluted in fresh medium prior to their use. The final concentration of DMSO in cell culture wells never exceeded 0.25% (v/v). The FDA-approved anticancer drug set is available from the Developmental Therapeutics Program at https://dtp.cancer.gov/organization/dscb/obtaining/available_plates.htm. All drugs and investigational agents were tested over a range starting from a high concentration at or near the clinical Cmax and decreasing in half-log increments. If the clinical Cmax for an agent had not been determined, the highest concentration tested was 10 microM.
Cell Lines. The patient-derived cancer cell (PDC) lines: 292921-168-R-J2-PDC, K24384-001-R-PDC, and 521955-158-R2-J5-PDC pancreatic carcinomas, 556581-035-R-J1 ovarian carcinoma, 324938-238-R-J1-PDC, 855422-203-R-J1-PDC and 883617-216-R-J1-PDC urothelial bladder carcinomas, 743489-274-T-PDC renal cell carcinoma, 138582-R-J1 Merkel cell tumor, K60290-347-R-J1 and K57222-313-R-J1-PDC glioblastomas, 653999-131-R-J2-PDC, LG0703-F948-PDC, and 349418-098-R-PDC non-small cell lung carcinomas, 885512-296-R-J2-PDC, 171881-019-R-J1-PDC breast carcinomas and 186277-243-T-J2-PDC and 233499-124-R-J2-PDC colon carcinomas were obtained from the NCI Patient-Derived Models Repository (PDMR, https://pdmr.cancer.gov). The established cell lines NCI/ADR-RES (RRID:CVCL_14520 and OVCAR-5 (RRID:CVCL_1628) ovarian carcinomas, 786-O (RRID:CVCL_1051) and A498 (RRID:CVCL_A498) renal cell carcinoma, NCI-H211 (ATCC, cat. CRL-5824; RRID:CVCL_1529), NCI-H196 (ATCC, cat. CRL-5823, RRID:CVCL_1509), SW 1271 (ATCC, cat. CRL-2177, RRID:CVCL_1716) and NCI-H1876 (ATCC, cat. CRL-5902, RRID:CVCL_1503) small cell lung carcinomas, MDA-MB-231 (RRID:CVCL_0062) and MDA-MB-468 (RRID:CVCL_0419)breast carcinomas (10-12). Pooled donor human umbilical vein endothelial cells (HUVEC, Lonza, cat. CC-2519) and human mesenchymal stem cells (hMSC, Lonza, cat. PT-2501) were purchased from Lonza (Walkersville, MD).
Cell Culture. All cells were maintained in an incubator at 37 degrees C and 5% CO2 with 95% humidity. The PDC lines were cultured according to standard operating procedures established by the NCI PDMR (https://pdmr.cancer.gov). Briefly all PDCs were thawed and cultured in Matrigel-coated flasks prepared with a working solution of 1X Ham's F-12 nutrient mix, without supplementation (Invitrogen, Waltham, MA, cat. 11765054), 100 U/mL penicillin-streptomycin (Invitrogen, cat. 15140122), and 2.5% Matrigel (Corning Inc., Corning, NY, cat. 354248) for the first three passages. […]

CCc1c2c(nc3ccc(O)cc13)-c1cc3c(c(=O)n1C2)COC(=O)[C@]3(O)CC + NC1CC1c1ccc(-c2cccc(O)c2)cc1
pIC50 (second compound 0.1 µM): > 9.02 | pIC50 (second compound 0.316 µM): > 9.02 | pIC50 (second compound 1 µM): > 9.02 | pIC50 (second compound 3.16 µM): > 9.02 | pIC50 (second compound 10 µM): > 9.02 | viability, T/C (second compound 0.1 µM, first compound 0.000949 µM): 3.8% | viability, T/C (second compound 0.1 µM, first compound 0.003 µM): 1.6% | viability, T/C (second compound 0.1 µM, first compound 0.00949 µM): 0.64% | viability, T/C (second compound 0.1 µM, first compound 0.03 µM): 0.32% | viability, T/C (second compound 0.1 µM, first compound 0.0949 µM): 0.23% | viability, T/C (second compound 0.1 µM, first compound 0.3 µM): 0.59% | viability, T/C (second compound 0.316 µM, first compound 0.000949 µM): 3.44% | viability, T/C (second compound 0.316 µM, first compound 0.003 µM): 1.85% | viability, T/C (second compound 0.316 µM, first compound 0.00949 µM): 0.73% | viability, T/C (second compound 0.316 µM, first compound 0.03 µM): 0.21% | viability, T/C (second compound 0.316 µM, first compound 0.0949 µM): 0.3% | viability, T/C (second compound 0.316 µM, first compound 0.3 µM): 0.38% | viability, T/C (second compound 1 µM, first compound 0.000949 µM): 4.73% | viability, T/C (second compound 1 µM, first compound 0.003 µM): 3.11% | viability, T/C (second compound 1 µM, first compound 0.00949 µM): 0.96% | viability, T/C (second compound 1 µM, first compound 0.03 µM): 0.37% | viability, T/C (second compound 1 µM, first compound 0.0949 µM): 0.24% | viability, T/C (second compound 1 µM, first compound 0.3 µM): 0.51% | viability, T/C (second compound 3.16 µM, first compound 0.000949 µM): 8.34% | viability, T/C (second compound 3.16 µM, first compound 0.003 µM): 2.9% | viability, T/C (second compound 3.16 µM, first compound 0.00949 µM): 1.29% | viability, T/C (second compound 3.16 µM, first compound 0.03 µM): 0.29% | viability, T/C (second compound 3.16 µM, first compound 0.0949 µM): 0.18% | viability, T/C (second compound 3.16 µM, first compound 0.3 µM): 0.31% | viability, T/C (second compound 10 µM, first compound 0.000949 µM): 20.9% | viability, T/C (second compound 10 µM, first compound 0.003 µM): 3.67% | viability, T/C (second compound 10 µM, first compound 0.00949 µM): 1.58% | viability, T/C (second compound 10 µM, first compound 0.03 µM): 0.59% | viability, T/C (second compound 10 µM, first compound 0.0949 µM): 0.26% | viability, T/C (second compound 10 µM, first compound 0.3 µM): 0.3%
